Source: US12653796B2, “Compounds for use (in particular RIPA-56) in the prevention and/or treatment of non-alcoholic fatty liver disease” (SORBONNE UNIVERSITE, priority 2019, dated 2026)

Experiments:
L929 cells = experiment: TNF-induced RIPK1-dependent cell death in L929 cells (MTT cell survival); assay type: cell-based; details: 20 μM, 2 h pre-treatment, TNF (50 ng/mL) 20 h
Experimental: FIG. 1. RIPA-56 prevents RIPK1-dependent cell death in L929 cells upon caspase inhibition and TNF stimulation. L929 cells were treated with RIPA-56 (20 μM), Nec-1 (20 μM) or vehicle for 2 h, prior to incubation with or without TNF (50 ng/mL), and analyzed for (A) morphology and (B) cell survival using MTT assay, after 20 h incubation with or without TNF; (C) Western blot analyses at different time points of incubation with TNF. Results are shown as mean±SEM; n.s., not significant; ****p<0.0001. Data are representative of three independent experiments.
L929 cells (LGC Standards, Molsheim, France), were cultured in Dulbecco's modified Eagle's medium (DMEM) (ThermoFisher, Massachusetts, USA) supplemented with 10% fetal bovine serum (Eurobio, Courtaboeuf, France), penicillin (100 IU/ml), streptomycin (0.1 mg/ml), and L-glutamine (0.03%) (ThermoFisher). […]
Cell viability was determined by using 3-(4,5-dimethylthiazol-2-yl)-[…] (MTT) colorimetric assay (ThermoFisher), which measures cell metabolic activity. […] Once MTT crystals were developed and controlled under light microscopy, they were dissolved in DMSO and quantified by measuring absorbance at 540 nm.

[1] = system: primary human hepatocytes; experiment: Fat depletion in primary human hepatocytes with free fatty acid-induced steatosis; assay type: cell-based; details: 20 μM, 24 h
Experimental: FIG. 7. RIPA-56 treatment induces fat depletion in primary human hepatocytes. Primary human hepatocytes were isolated from steatotic human livers of patients with NAFLD (n=5) (A-C) or from non-steatotic human livers and incubated with free fatty acids to induce steatosis or without (W/O) (n=5) (D-G), and treated with RIPA-56 (20 μM) or DMSO (vehicle) for 24 h. (A, D) Representative Oil Red-O and DAPI images; (B, E) Quantification of Oil Red-O staining normalized for the number of DAPI-stained nuclei; (C, F) Quantification of intracellular triglycerides normalized to protein content; (G) mRNA levels of CPT1A, MTTP and APOB100 were assessed by RT-qPCR, and shown relative to DMSO-treated hepatocytes. Results are shown as mean±SEM; n.s., not significant; *p<0.05; **p<0.01; scale bars, 100 μm. These findings are representative of five independent cell preparations.
FIG. 9. MLKL controls intrahepatic triglyceride content in hepatocytes. (A-D) Primary human hepatocytes were isolated from non-steatotic human livers and incubated with free fatty acids to induce steatosis, or without (W/O), and treated with necrosulfonamide (NSA) (20 μM) or DMSO (vehicle) for 24 h. (A) Representative Oil Red-O and DAPI images; (B) Quantification of Oil Red-O staining normalized for the number of DAPI-stained nuclei; (C) Quantification of intracellular triglycerides normalized to protein content. (D) mRNA levels of CPT1A, MTTP and APOB100 were assessed by RT-qPCR and shown relative to DMSO-treated hepatocytes; (E-H) AML-12 cells were knocked-out (KO) for MLKL and compared with control (CTL) cells, which underwent a similar CRISPR-Cas9 selection as KO cells; (E) Whole-cell lysates were extracted from CTL and MLKL-KO AML-12 cells and analyzed by Western blot using antibodies against MLKL, Tubulin and GAPDH; (F) Representative Oil Red-O and DAPI images; (G) Oil Red-O staining and (H) triglycerides quantification in fat-loaded cell lines. Results are shown as mean±SEM; n.s., not significant; *p<0.05; **p<0.01; ***p<0.001; scale bars, 100 μm. These experiments are representative of five independent cell preparations.
The liver fragment was initially perfused with a prewarmed (37° C.) calcium-free buffer supplemented with 5 mmol/L ethylene glycol tetra-acetic acid (Sigma) followed by perfusion with a prewarmed (37° C.) buffer containing 6 mmol/L calcium (CaCl2) and collagenase 0.05% ([…]) (Sigma). The liver fragment was then gently shaken to disperse liver cells in Hepatocyte Wash Medium (Life Technologies, Villebon-sur-Yvette, France). The resulting cell suspension was filtered through a gauze-lined funnel. Cells were then centrifuged at low speed. The supernatant, containing damaged or dead hepatocytes, non-parenchymal cells and debris were removed and pelleted hepatocytes were re-suspended in Hepatocyte Wash Medium. The count of viable cells was determined using trypan blue exclusion. Freshly isolated normal (steatosis <5%) or steatotic (>10%) hepatocytes were resuspended in Williams medium E (Life technologies) containing 10% fetal calf serum (Eurobio), penicillin (200 U/mL)-streptomycin (200 μg/mL), Fungizone (2.5 μg/mL) and insulin (0.1 U/mL) (Life Technologies). The cells were seeded in 12-, 24- and 96-well plates pre-coated with type I collagen at a density of 0.78×10^6, 0.4×10^6 and 0.5×10^5 viable cells/well, respectively, and incubated overnight at 37° C. in a 5% CO2 atmosphere. The medium was replaced with fresh complete hepatocyte medium supplemented with 1 μmol/L hydrocortisone hemisuccinate (Laboratoires SERB, Paris, France) and hepatocytes were maintained in this medium. To induce steatosis in normal hepatocytes, PHH were incubated with free fatty acid (FFA) mixtures of oleic acid and palmitic acid in a molar ratio 2:1 (500:250 μmol/L), respectively, and with 1% fatty-acid-free BSA for 48 hours.
Total RNA was purified from liver tissue using TRIzol reagent (ThermoFisher) and a RNeasy Mini kit (Qiagen, Courtaboeuf, France). […]

CCC(C)(C)C(=O)N(O)Cc1ccccc1 [RIPA-56, N-Benzyl-N-hydroxy-2,2-dimethylbutanamide]
RIPK1-dependent cell death (L929 cells): prevents | intracellular lipid droplets (Oil Red-O) ([1]; FFA-induced steatosis): significant decrease | intracellular triglyceride content ([1]; FFA-induced steatosis): significant decrease | CPT1A, APOB100 and MTTP expression (mRNA) ([1]; RT-qPCR): up-regulation
